Test results from patent US9573957B2 (Boehringer Ingelheim International GmbH, priority 2013, dated 2017).

Legend:
human LTA4 hydrolase = human LTA4 hydrolase (Homo sapiens (Human), UniProt P09960); assay: LTA4H Enzyme assay (peptidase, Arg-AMC cleavage); type: biochemical; details: LTA4H Enzyme 1 nM, Arg-AMC substrate 50 μM, room temperature 1 h, fluorescence
Method: The compounds of the invention are assessed for the ability to interact with human LTA4 hydrolase in an enzymatic assay that measures the ability of the enzyme to cleave the peptide bond of arginyl-aminomethylcoumarin (Arg-AMC). LTA4H Enzyme (1 nM final), Arg-AMC substrate (50 μM final), and compound are combined in a reaction buffer (50 mM Tris-HCl (pH 7.5), 100 mM KCl, 0.5% bovine serum albumin) at room temperature for 1 h. The formation of product is assessed by measuring the fluorescence of aminomethylcoumarin product (excitation wavelength 380 nm/emission wavelength 460 nm).

[1] = system: synthesis of LTB4 in human whole blood; assay: LTB4 production inhibition assay in human whole blood (HWB); type: cell-based; details: heparinized human whole blood, 15 min at 37° C., Calcimycin 20 μM 30 min, plasma LTB4 by HTRF
Method: The compounds of the invention are additionally tested in a human whole blood (HWB) assay to determine their ability to inhibit the synthesis of LTB4 in a cellular system. Compounds are combined with heparinized human whole blood and incubated for 15 minutes at 37° C. Calcimycin (20 μM final, prepared in phosphate-buffered saline, pH 7.4) is then added and the mixture is incubated for another 30 minutes at 37° C. The samples are centrifuged for 5 min at low speed (1500×g) and the plasma layer is removed. Plasma LTB4 concentrations are then measured using an antibody-based homogenous time-resolved fluorescence method (CisBio, Bedford, Mass.).

human LTA4 hydrolase, sequence (P09960 whole entry): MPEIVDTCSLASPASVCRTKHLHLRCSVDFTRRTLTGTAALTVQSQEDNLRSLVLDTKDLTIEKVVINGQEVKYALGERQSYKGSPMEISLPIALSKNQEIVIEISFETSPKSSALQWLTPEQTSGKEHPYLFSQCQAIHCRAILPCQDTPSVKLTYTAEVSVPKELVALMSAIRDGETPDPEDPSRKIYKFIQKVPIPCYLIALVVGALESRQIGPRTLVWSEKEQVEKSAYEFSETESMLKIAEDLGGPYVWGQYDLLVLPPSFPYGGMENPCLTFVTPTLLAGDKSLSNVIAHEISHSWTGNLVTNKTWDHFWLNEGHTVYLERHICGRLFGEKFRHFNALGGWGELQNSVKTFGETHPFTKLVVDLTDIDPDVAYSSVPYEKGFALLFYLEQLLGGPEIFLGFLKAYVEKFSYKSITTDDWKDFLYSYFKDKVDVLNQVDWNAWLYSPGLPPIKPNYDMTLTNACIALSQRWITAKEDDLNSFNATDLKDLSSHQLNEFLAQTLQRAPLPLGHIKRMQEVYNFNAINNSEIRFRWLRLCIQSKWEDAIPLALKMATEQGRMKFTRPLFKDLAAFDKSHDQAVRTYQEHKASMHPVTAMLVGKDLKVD

| SMILES | IC50 (human LTA4 hydrolase) [nM] | IC50 [1] [nM] |
| --- | --- | --- |
| OC1CN(Cc2ccc3cc(Oc4ccc(-c5ccn[nH]5)cn4)ccc3c2)C1 [Example 1, 1-{6-[5-(2H-Pyrazol-3-yl)-pyridin-2-yloxy]-naphthalen-2-ylmethyl}-azetidin-3-ol] | 0.43 | 140 |
| NC(=O)C1CN(Cc2ccc3cc(Oc4ccc(-c5ccn[nH]5)cn4)ccc3c2)C1 [Example 2, 1-{6-[5-(2H-Pyrazol-3-yl)-pyridin-2-yloxy]-naphthalen-2-ylmethyl}-azetidine-3-carboxylic acid amide] | 0.46 | 210 |
| CC(=O)NC1CN(Cc2ccc3cc(Oc4ccc(-c5ccn[nH]5)cn4)ccc3c2)C1 [Example 3, N-(1-{6-[5-(2H-Pyrazol-3-yl)-pyridin-2-yloxy]-naphthalen-2-ylmethyl}-azetidin-3-yl)-acetamide] | 0.5 | 200 |
| OCC1CN(Cc2ccc3cc(Oc4ccc(-c5ccn[nH]5)cn4)ccc3c2)C1 [Example 4, (1-{6-[5-(2H-Pyrazol-3-yl)-pyridin-2-yloxy]-naphthalen-2-ylmethyl}-azetidin-3-yl)-methanol] | 0.48 | 160 |
| O[C@H]1CCN(Cc2ccc3cc(Oc4ccc(-c5ccn[nH]5)cn4)ccc3c2)C1 [Example 5, (S)-1-{6-[5-(2H-Pyrazol-3-yl)-pyridin-2-yloxy]-naphthalen-2-ylmethyl}-pyrrolidin-3-ol] | 0.6 | 130 |
| O[C@@H]1CCN(Cc2ccc3cc(Oc4ccc(-c5ccn[nH]5)cn4)ccc3c2)C1 [Example 6, (R)-1-{6-[5-(2H-Pyrazol-3-yl)-pyridin-2-yloxy]-naphthalen-2-ylmethyl}-pyrrolidin-3-ol] | 0.57 | 130 |
| O=C(CO)N1CCN(Cc2ccc3cc(Oc4ccc(-c5ccn[nH]5)cn4)ccc3c2)CC1 [Example 7, 2-Hydroxy-1-(4-{6-[5-(2H-pyrazol-3-yl)-pyridin-2-yloxy]-naphthalen-2-ylmethyl}-piperazin-1-yl)-ethanone] | 0.4 | 120 |
| O=C1[C@@H](O)CCN1C1CCN(Cc2ccc3cc(Oc4ccc(-c5ccn[nH]5)cn4)ccc3n2)CC1 [Example 8, (S)-3-Hydroxy-1-(1-{6-[5-(2H-pyrazol-3-yl)-pyridin-2-yloxy]-quinolin-2-ylmethyl}-piperidin-4-yl)-pyrrolidin-2-one] | 0.86 | 230 |
| O=C(CO)NC1CCN(Cc2ccc3cc(Oc4ccc(-c5ccn[nH]5)cn4)ccc3c2)CC1 [Example 9, 2-Hydroxy-N-(1-{6-[5-(2H-pyrazol-3-yl)-pyridin-2-yloxy]-naphthalen-2-ylmethyl}-piperidin-4-yl)-acetamide] | 0.5 | 170 |
| OC1CC2(C1)CN(Cc1ccc3cc(Oc4ccc(-c5ccn[nH]5)cn4)ccc3c1)C2 [Example 10, 2-{6-[5-(2H-Pyrazol-3-yl)-pyridin-2-yloxy]-naphthalen-2-ylmethyl}-2-aza-spiro[3.3]heptan-6-ol] | 0.48 | 150 |
| CC1(O)CN(Cc2ccc3cc(Oc4ccc(-c5ccn[nH]5)cn4)ccc3c2)C1 [Example 11, 3-Methyl-1-{6-[5-(2H-pyrazol-3-yl)-pyridin-2-yloxy]-naphthalen-2-ylmethyl}-azetidin-3-ol] | 0.53 | 110 |
| CC(=O)N[C@@H]1CCN(Cc2ccc3cc(Oc4ccc(-c5ccn[nH]5)cn4)ccc3c2)C1 [Example 12, N-((R)-1-{6-[5-(2H-Pyrazol-3-yl)-pyridin-2-yloxy]-naphthalen-2-ylmethyl}-pyrrolidin-3-yl)-acetamide] | 0.34 | 120 |
| CC(=O)N[C@H]1CCN(Cc2ccc3cc(Oc4ccc(-c5ccn[nH]5)cn4)ccc3c2)C1 [Example 13, N-((S)-1-{6-[5-(2H-Pyrazol-3-yl)-pyridin-2-yloxy]-naphthalen-2-ylmethyl}-pyrrolidin-3-yl)-acetamide] | 0.79 | 290 |
| O[C@H]1CCCN(Cc2ccc3cc(Oc4ccc(-c5ccn[nH]5)cn4)ccc3c2)C1 [Example 14, (S)-1-{6-[5-(2H-Pyrazol-3-yl)-pyridin-2-yloxy]-naphthalen-2-ylmethyl}-piperidin-3-ol] | 1.2 | 190 |
| O[C@@H]1CCCN(Cc2ccc3cc(Oc4ccc(-c5ccn[nH]5)cn4)ccc3c2)C1 [Example 15, (R)-1-{6-[5-(2H-Pyrazol-3-yl)-pyridin-2-yloxy]-naphthalen-2-ylmethyl}-piperidin-3-ol] | 1 | 190 |
| CN(CCO)Cc1ccc2cc(Oc3ccc(-c4ccn[nH]4)cn3)ccc2c1 [Example 16, 2-(Methyl-{6-[5-(2H-pyrazol-3-yl)-pyridin-2-yloxy]-naphthalen-2-ylmethyl}-amino)-ethanol] | 0.7 | 160 |
| OCC1CCN(Cc2ccc3cc(Oc4ccc(-c5ccn[nH]5)cn4)ccc3c2)CC1 [Example 17, (1-{6-[5-(2H-Pyrazol-3-yl)-pyridin-2-yloxy]-naphthalen-2-ylmethyl}-piperidin-4-yl)-methanol] | 0.75 | 160 |
| OC[C@H]1CCN(Cc2ccc3cc(Oc4ccc(-c5ccn[nH]5)cn4)ccc3c2)C1 [Example 18, ((S)-1-{6-[5-(2H-Pyrazol-3-yl)-pyridin-2-yloxy]-naphthalen-2-ylmethyl}-pyrrolidin-3-yl)-methanol] | 0.76 | 160 |

Other lines, results leading:

| IC50 (human LTA4 hydrolase) [nM] | IC50 [1] [nM] | SMILES |
| --- | --- | --- |
| 0.63 | 140 | CN(Cc1ccc2cc(Oc3ccc(-c4ccn[nH]4)cn3)ccc2c1)[C@@H]1CCN(C(=O)CO)C1 [Example 19, 2-Hydroxy-1-[(R)-3-(methyl-{6-[5-(2H-pyrazol-3-yl)-pyridin-2-yloxy]-naphthalen-2-ylmethyl}-amino)-pyrrolidin-1-yl]-ethanone] |
| 0.76 | 150 | CN(C(=O)CO)[C@H]1CCN(Cc2ccc3cc(Oc4ccc(-c5ccn[nH]5)cn4)ccc3c2)C1 [Example 20, 2-Hydroxy-N-methyl-N-((S)-1-{6-[5-(2H-pyrazol-3-yl)-pyridin-2-yloxy]-naphthalen-2-ylmethyl}-pyrrolidin-3-yl)-acetamide] |
| 0.67 | 100 | CN(C(=O)CO)[C@@H]1CCN(Cc2ccc3cc(Oc4ccc(-c5ccn[nH]5)cn4)ccc3c2)C1 [Example 21, 2-Hydroxy-N-methyl-N-((R)-1-{6-[5-(2H-pyrazol-3-yl)-pyridin-2-yloxy]-naphthalen-2-ylmethyl}-pyrrolidin-3-yl)-acetamide] |
| 0.64 | 130 | OC[C@@H]1CCN(Cc2ccc3cc(Oc4ccc(-c5ccn[nH]5)cn4)ccc3c2)C1 [Example 22, ((R)-1-{6-[5-(2H-Pyrazol-3-yl)-pyridin-2-yloxy]-naphthalen-2-ylmethyl}-pyrrolidin-3-yl)-methanol] |
| 0.9 | 170 | CN(Cc1ccc2cc(Oc3ccc(-c4ccn[nH]4)cn3)ccc2c1)[C@H]1CCN(C(=O)CO)C1 [Example 23, 2-Hydroxy-1-[(S)-3-(methyl-{6-[5-(2H-pyrazol-3-yl)-pyridin-2-yloxy]-naphthalen-2-ylmethyl}-amino)-pyrrolidin-1-yl]-ethanone] |
| 2 | 290 | COCC(=O)N1CCN(Cc2ccc3cc(Oc4ncc(-c5ccn[nH]5)cn4)ccc3c2)CC1 [Example 24, 2-Methoxy-1-(4-{6-[5-(2H-pyrazol-3-yl)-pyrimidin-2-yloxy]-naphthalen-2-ylmethyl}-piperazin-1-yl)-ethanone] |
| 1.7 | 520 | CC(=O)N1CCN(Cc2ccc3cc(Oc4ncc(-c5ccn[nH]5)cn4)ccc3c2)CC1 [Example 25, 1-(4-{6-[5-(2H-Pyrazol-3-yl)-pyrimidin-2-yloxy]-naphthalen-2-ylmethyl}-piperazin-1-yl)-ethanone] |
| 2.3 | 240 | OC1CCN(Cc2ccc3cc(Oc4ncc(-c5ccn[nH]5)cn4)ccc3c2)CC1 [Example 26, 1-{6-[5-(2H-Pyrazol-3-yl)-pyrimidin-2-yloxy]-naphthalen-2-ylmethyl}-piperidin-4-ol] |
| 1.4 | 200 | NC(=O)C1CCN(Cc2ccc3cc(Oc4ncc(-c5ccn[nH]5)cn4)ccc3c2)CC1 [Example 27, 1-{6-[5-(2H-Pyrazol-3-yl)-pyrimidin-2-yloxy]-naphthalen-2-ylmethyl}-piperidine-4-carboxylic acid amide] |
| 1.8 | 270 | CC(=O)NC1CCN(Cc2ccc3cc(Oc4ncc(-c5ccn[nH]5)cn4)ccc3c2)CC1 [Example 28, N-(1-{6-[5-(2H-Pyrazol-3-yl)-pyrimidin-2-yloxy]-naphthalen-2-ylmethyl}-piperidin-4-yl)-acetamide] |
| 1.8 | 220 | O=C1[C@@H](O)CCN1C1CCN(Cc2ccc3cc(Oc4ncc(-c5ccn[nH]5)cn4)ccc3c2)CC1 [Example 29, (S)-3-Hydroxy-1-(1-{6-[5-(2H-pyrazol-3-yl)-pyrimidin-2-yloxy]-naphthalen-2-ylmethyl}-piperidin-4-yl)-pyrrolidin-2-one] |
| 12 |  | N#CC1(C(=O)N2CCN(Cc3ccc4cc(Oc5ccc(-c6ccn[nH]6)cn5)ccc4n3)CC2)CCCC1 [Example 147, 1-(4-{6-[5-(2H-Pyrazol-3-yl)-pyridin-2-yloxy]-quinolin-2-ylmethyl}-piperazine-1-carbonyl)-cyclopentanecarbonitrile] |
